pIC50: −log10 of the molar value. Where two headings read alike, the source gives them in different places. Values belong to the compound of their own block, whether it stands above or below them.
Molecular target: T1, human P2X3 receptor (Homo sapiens, UniProt P56373)
T1 construct: expressed in transfected cells; host or cells: CHO-K1
T1 sequence (P56373 1-397): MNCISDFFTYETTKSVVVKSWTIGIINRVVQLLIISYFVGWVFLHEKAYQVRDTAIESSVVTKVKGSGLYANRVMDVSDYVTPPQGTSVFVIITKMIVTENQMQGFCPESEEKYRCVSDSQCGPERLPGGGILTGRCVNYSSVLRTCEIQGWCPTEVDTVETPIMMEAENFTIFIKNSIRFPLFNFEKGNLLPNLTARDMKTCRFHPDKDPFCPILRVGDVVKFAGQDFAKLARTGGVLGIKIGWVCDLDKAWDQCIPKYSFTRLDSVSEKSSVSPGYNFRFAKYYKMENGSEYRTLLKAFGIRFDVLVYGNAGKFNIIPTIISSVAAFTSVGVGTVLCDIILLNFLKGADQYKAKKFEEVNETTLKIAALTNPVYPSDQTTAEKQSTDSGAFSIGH
Experiment: Calcium luminescence (photoprotein) assay in CHO-K1 cells co-expressing human P2X3 receptor, α,β-Met-ATP stimulation, FLEXSTATION readout
Type: cell-based
Experimental: The assay for the human purinergic P2X3 receptor has been adapted to the internal screening instrumentation using the FLEXSTATION as reader and a photoprotein as luminescent readout. The assay consists of CHO-K1 cells recombinantly co-expressing the human P2rx3 receptor and a Ca^2+ sensitive photoprotein. Cells are maintained in DMEM F-12 (1:1) mixture (LONZA cat. no BE04-687F/U1) supplemented with 9 mL of 100 mM Sodium Pyruvate (LONZA cat. no BE13-115E), 29 mL of 7.5% Sodium Bicarbonate (LONZA cat. no: BE17-613E), 5.5 mL of 1 M Hepes (LONZA cat. no BE17-737E), 5 mL of 100× Penicillin/Streptomycin (LONZA cat. no DE17-602E) and 50 mL of Fetal Bovine Serum (Sigma cat. no F7524), 1 mg/mL G418 (Sigma cat. no G8168) and 5 µg/ml puromycin (Sigma cat. no P9620). Standard propagation conditions consist of seeding in a P75 flask twice a week, recovering about 20×10^6 cells, corresponding to about 80% confluency. Cells were seeded into black-walled clear bottom 96 well plates at a density of 40000 cells/well in a Tyrode's buffer (Standard Tyrode's buffer: in house solution, 130 mM NaCl, 5 mM KCl, 2 mM CaCl2, 5 mM NaHCO3, 1 mM MgCl2, 20 mM HEPES, pH 7.4). After 24 h the culture medium was replaced with 200 μL/well of coelenterazine in Tyrode's buffer (Coelenterazine: from BIOSYNTH (cat. no C-7001). 10 mM stock solution was prepared in DMSO and glutathione and stored at −20° C.). The plates were incubated for 4 hours at 37° C., and injected with 10 μL/well of test compounds at 25× concentration in Tyrode's buffer. After 4 minutes a second injection of 50 μL/well of 5× α,β-Met-ATP in Tyrode's buffer (α,β-Met-ATP: from Tocris (cat. no 3209), was dissolved at 100 mM in water and stored in aliquots at −20° C.) was performed and the signal of the emitted luminescence was recorded by FLEXSTATION III (Molecular Devices).
The inhibition curves of the tested compounds at cloned P2X3 receptor were determined by nonlinear regression analysis using software Prism 4.0 (Graphpad, San Diego, Calif.). The IC50 values and pseudo-Hill slope coefficients were estimated by the program.

[1] = Table 7, human P2X3 receptor antagonist activity, CHO-K1 cells, α,β-Met-ATP, read-out: h-P2X3 IC50
[2] = Table 6, human P2X3 receptor antagonist activity, CHO-K1 cells, α,β-Met-ATP, read-out: h-P2X3 IC50
[3] = Table 8, human P2X3 receptor antagonist activity, CHO-K1 cells, α,β-Met-ATP, read-out: h-P2X3 IC50

Structure (SMILES): CC(C)Cc1cn2c(=O)n(Cc3c(F)cc(Cl)cc3F)c3cc(N4CCOCC4)cnc3c2n1 [Example 75, 6-(4-chloro-2,6-difluorobenzyl)-2-(2-methylpropyl)-8-(morpholin-4-yl)imidazo[1,2-c]pyrido[2,3-e]pyrimidin-5(6H)-one]
- pIC50 [1]: 5.46

Structure (SMILES): Cc1ccc(Cc2nn3c(C(C)C)nnc3c3ncc(N4CCOCC4)cc23)cc1 [Example 115, 6-(4-methylbenzyl)-8-(morpholin-4-yl)-3-(propan-2-yl)pyrido[2,3-d][1,2,4]triazolo[4,3-b]pyridazine]
- pIC50 [3]: 6.36

Structure (SMILES): CC1(c2nnc3c4ncc(N5CCOCC5)cc4n(Cc4ccc(Cl)cc4)c(=O)n23)CC1 [Example 102, 6-(4-chlorobenzyl)-3-(1-methylcyclopropyl)-8-(morpholin-4-yl)pyrido[2,3-e][1,2,4]triazolo[4,3-c]pyrimidin-5(6H)-one]
- pIC50 (running text b1263, read-out: inhibition (human P2X3 receptor)): 7.59

Structure (SMILES): Cc1ccc(Cc2nn3c(CC4CCCCC4)nnc3c3ncccc23)cc1 [Example 136, 3-(cyclohexylmethyl)-6-(4-methylbenzyl)pyrido[2,3-d][1,2,4]triazolo[4,3-b]pyridazine]
- pIC50 [3]: 5.75

Structure (SMILES): O=C(C1CN=C2c3ncc(N4CCOCC4)cc3N(Cc3ccc(Cl)cc3)C(=O)N21)N1CCOCC1 (stereo not shown) [Example 55, 6-(4-chlorobenzyl)-8-(morpholin-4-y1)-3-(morpholin-4-ylcarbonyl)-2,6-dihydroimidazo[1,2-c]pyrido[2,3-e]pyrimidin-5(3H)-one]
- pIC50 [2]: 5.61

Structure (SMILES): CC(C)CC1CN2C(=O)N(Cc3ccc(Cl)cc3)c3cc(N4CCOCC4)cnc3C2=N1 (stereo not shown) [Example 30, 6-(4-chlorobenzyl)-2-(2-methylpropyl)-8-(morpholin-4-y1)-2,6-dihydroimidazo[1,2-c]pyrido[2,3-e]pyrimidin-5(3H)-one]
- pIC50 [2]: 6.46

Structure (SMILES): COc1ccc(CN2C(=O)N3C(=NCC3C(C)C)c3ncc(N4CCOCC4)cc32)cc1 (stereo not shown) [Example 1, 6-(4-methoxybenzyl)-8-(morpholin-4-yl)-3-(propan-2-yl)-2,6-dihydroimidazo[1,2-c]pyrido[2,3-e]pyrimidin-5(3H)-one]
- pIC50 [2]: 5.28

Structure (SMILES): COc1ccc(CN2C(=O)N3CC(C4CCCCC4)N=C3c3ncc(N4CCOCC4)cc32)cc1 (stereo not shown) [Example 23, 2-cyclohexyl-6-(4-methoxybenzyl)-8-(morpholin-4-yl)-2,6-dihydroimidazo[1,2-c]pyrido[2,3-e]pyrimidin-5(3H)-one]
- pIC50 [2]: 6.30

Now from value to compound:

- pIC50 [2]: 6.31
Structure (SMILES): COc1cc(CN2C(=O)N3C(=NCC3C3CCCCC3)c3ncc(N4CCOCC4)cc32)cc(OC)c1 (stereo not shown) [Example 44, 3-cyclohexyl-6-(3,5-dimethoxybenzyl)-8-(morpholin-4-yl)-2,6-dihydroimidazo[1,2-c]pyrido[2,3-e]pyrimidin-5(3H)-one]

- pIC50 [2]: 5.48
Structure (SMILES): O=C1N(Cc2ccc(Cl)cc2)c2cc(N3CCOCC3)cnc2C2=NCC3(CCOCC3)N12 [Example 41, 6-(4-chlorobenzyl)-8-(morpholin-4-yl)-2,2′,3′,5′,6,6′-hexahydro-5h-spiro[imidazo[1,2-c]pyrido[2,3-e]pyrimidine-3,4′-pyran]-5-one]

- pIC50 [2]: 6.52
Structure (SMILES): CC(C)CCC1CN=C2c3ncc(N4CCOCC4)cc3N(Cc3ccc(Cl)cc3)C(=O)N21 (stereo not shown) [Example 63, 6-(4-chlorobenzyl)-3-(3-methylbutyl)-8-(morpholin-4-yl)-2,6-dihydroimidazo[1,2-c]pyrido[2,3-e]pyrimidin-5(3H)-one]

- pIC50 [1]: 6.62
Structure (SMILES): CCc1c(C)nc2c3ncc(NCC4COC4)cc3n(Cc3cc(OC)cc(OC)c3)c(=O)n12 [Example 77, 6-(3,5-dimethoxybenzyl)-3-ethyl-2-methyl-8-{[(oxetan-3-yl)methyl]amino}imidazo[1,2-c]pyrido[2,3-e]pyrimidin-5(6H)-one]

- pIC50 (Table 9, human P2X3 receptor antagonist activity, CHO-K1 cells, α,β-Met-ATP, read-out: h-P2X3 IC50): 5.59
Structure (SMILES): COc1ccc(Cn2c(=O)n3c(C(C)(C)C)nnc3c3ncc(N)cc32)cc1 [Example 176, 8-amino-3-tert-butyl-6-(4-methoxybenzyl)pyrido[2,3-e][1,2,4]triazolo[4,3-c]pyrimidin-5(6H)-one]

— US11999732B2, “P2X3 receptor antagonists” (RECORDATI INDUSTRIA CHIMICA E FARMACEUTICA SPA, priority 2018, dated 2024)
